Laboratory results from patent US20190064146A1, “IMMUNE CELLS HAVING INCREASED IMMUNITY OR RESISTANCE TO AN IMMUNOSUPPRESSIVE CYTOKINE AND USE OF THE SAME” (Innate Tumor Immunity, INC., priority 2015, published 2019).

Test system: EG.7 tumor cells
Assay: Adoptive transfer of in vitro activated OT-1 CD8+ T cells into mice with established EG.7 flank tumors
Type: in vivo
Details: OT-1 splenocytes activated with OVA antigen 1 μg/mL plus TGF-β 10 ng/mL and IL-1β 10 ng/mL for 5 days; 5×10^6 CD8+ cells intraperitoneally into C57BL/6J mice with 7-day EG.7 tumors
Experimental: To induce tumor, 1×10^6 EG.7 tumor cells, which expressed the OVA antigen, were injected subcutaneously on the flank of Black/6 mice. In this condition, after 7 days EG.7 cells from palpable tumors. To generate anti-tumor T cells, splenocytes from OT-1 mice, which have a transgenic TCR that recognize OVA antigen, were activated with OVA antigen (1 μg/mL) in the presence of TGF-β, or the presence of TGF-β and IL-1β. After 5 days CD8^+ cells were purified. […] Tumor volume was recorded 3 times a week until the end of the study. […]
OT-1 mice were anesthetized and spleens were harvested and strained through a 70-um filter with PBS with 10% FBS. […] After washing, cells were counted and placed in tissue culture at a final concentration of 1×10^6 cells/mL. […]
Tumors were established with subcutaneous flank injections of 1×10^6 cells suspended in 100 μL PBS. Tumors were measured three times a week and volumes were estimated using the formula 3.14×[largest diameter×(perpendicular diameter)^2]/6. […]
The average tumor volumes of the combination treatment group over time was plotted and compared to control treated with vehicle. […] For statistical comparisons, Two-Way Anova with Bonferroni correction was calculated with GaphPrism software.

## IL-1β: exemplary NLRP3 activator; cytokine interleukin-1β added to T cell culture
  CD8+ antitumor activity against established cancer (tumor volume): promotes CD8^+ antitumor activity against established cancer
